In paper PMC5324278, “Novel synthetic analogues of avian β-defensin-12: the role of charge, hydrophobicity, and disulfide bridges in biological functions” (BMC Microbiology, 2017):
Bridge positions count the residues as written; N and C are the ends. Square brackets hold non-standard residues; d marks the D form. Ends that are not written are not given here. Abu = CC[C@H](N)C(=O)O

Legend:
[1] = system: P. aeruginosa (ATCC 27853); assay type: cell-based, Pseudomonas aeruginosa; conditions: ATCC 27853, 24 h
Description: (§1) The minimum inhibitory concentrations (MIC) of AvBDs were determined according to the guidelines of the Clinical and Laboratory Standards Institute (CLSI). The Muller Hinton II broth used in standard MIC assays contained 20–25 mg/L of calcium and 10–12.5 mg/L of magnesium. Modified MICs of AvBDs were also determined under a low-salt and low-nutrient condition by using 100× diluted Muller Hinton II broth containing 0.2 mg/L of calcium, 0.1 mg/L magnesium and 5 mM (292 mg/L) NaCl. MIC obtained under the low-salt and low-nutrient condition was referred to as MIC-ls. AvBD peptides were two-fold serially diluted (2 to 256 μg/ml) in a 96-well microtiter plate. An equal volume (μl) of bacterial suspension was added to each well of the plate. The final bacterial concentration in the wells was 5 × 10^5 CFU/ml. […] To complement MIC-ls assays, the minimum bactericidal concentrations (MBC) were evaluated by sub-culturing the contents of the first two clear wells obtained in the MIC-ls assay onto LB agar plates. All assays were conducted in triplicate. The lowest peptide concentration inhibiting more than 99% of bacterial growth was defined as MBC-ls. AvBD analogues were regarded as bactericidal if the MBC was no more than four times the MIC [29].

[2] = system: mouse immature dendritic JAWSII cells; assay: Chemotaxis assay, 48-well microchemotaxis chamber; assay type: cell-based; conditions: for chemotactic activity for JAWSII cells (in words): Fig. 9
Description: Migration of JAWSII and CCR2-CHO-K1 cells in response to AvBD-12 analogues was determined using a 48-well microchemotaxis chamber technique as previously described. Chemotaxis buffer (Minimum Essential Medium containing 0.1% BSA, 100U/ml penicillin, and 100 μg/ml streptomycin) and bacterial peptide N-Formyl-methionyl-leucyl-phenylalanine (fMLF, Sigma-Aldrich) were included as negative and positive controls, respectively. The results were presented as chemotactic index (C.I.). C.I. = number of migrated cells induced by AvBDs / number of migrated cells induced by chemotactic buffer. The assay was repeated five times.

S. aureus (ATCC 29213) = assay type: cell-based, Staphylococcus aureus; conditions: ATCC 29213, 24 h
Description: as §1

E. coli (ATCC 25922) = assay type: cell-based, Escherichia coli; conditions: ATCC 25922, 24 h
Description: as §1

[3] = system: S. Typhimurium (ATCC 14028); assay type: cell-based, Salmonella enteric serovar Typhimurium; conditions: ATCC 14028, 24 h
Description: as §1

[4] = system: Escherichia coli (ATCC 25922); assay type: cell-based; conditions: ATCC 25922, 2 h, 16 μg/ml
Description: (§2) Escherichia coli (ATCC 25922), Pseudomonas aeruginosa (ATCC 27853), Salmonella enteric serovar Typhimurium (ATCC 14028) and Staphylococcus aureus (ATCC 29213) were used to assess the antimicrobial activity of AvBD analogues. All bacterial strains were grown on Luria-Bertani (LB) agar plates or Trypticase Soy Agar with 5% Sheep Blood (TSA, Thermo Fisher Scientific) plates at 37 °C. Antimicrobial activity was determined by a colony counting assay. In brief, bacteria were resuspended in 100-fold diluted Mueller Hinton II broth with 5 mM NaCl (minimal growth medium) to obtain a final bacterial concentration of 2 × 10^5 CFU/ml. Twenty-five microliters of bacterial suspension and 25 μl of AvBD analogue solution were mixed in the wells of a 96-well polypropylene microtiter plate (Nunc™, Thermo Fisher Scientific). The final peptide concentrations were 2, 4, 8, 16, 32, 64 and 128 μg/ml. The minimal growth medium without AvBD peptide was included as a negative control. The bacterial-peptide mixtures were incubated at 37 °C for 2 h, ten-fold serially diluted and plated on LB agar plates. The numbers of bacteria colonies were enumerated after 16 h of incubation at 37 °C. Antimicrobial activity was expressed as percent of killing using the following formula: (CFUcontrol - CFUtreated) / CFUcontrol × 100%. To assess the resistance of AvBD analogues to sodium chloride (NaCl), antimicrobial assays were carried out in the presence of 5 mM, 50 mM, 100 mM or 150 mM NaCl. All assays were performed in triplicate.

[5] = system: Staphylococcus aureus (ATCC 29213); assay type: cell-based; conditions: ATCC 29213, 2 h; for percent of killing of S. aureus: 16 μg/ml
Description: as §2

[6] = system: Salmonella enteric serovar Typhimurium (ATCC 14028); assay type: cell-based; conditions: ATCC 14028, 2 h; for percent of killing of S. Typhimurium: 16 μg/ml
Description: as §2

[7] = system: Pseudomonas aeruginosa (ATCC 27853); assay type: cell-based; conditions: ATCC 27853, 2 h; for percent of killing of P. aeruginosa: 16 μg/ml
Description: as §2

CHO-K1 cells = assay: MTT cell cytotoxicity assay; assay type: cell-based; conditions: 256 μg/ml; 4, 12, 24 and 48 hours; Student t-test treated vs untreated; n = 3; Figure S1
Description: Chicken macrophage cell lines MQ-NCSU and HD11 were maintained in RPMI-1640 media supplemented with 10% fetal bovine serum (FBS), 2% chicken serum, 100 U/ml penicillin and 100 μg/ml streptomycin (Sigma-Aldrich) at 37 °C in humidified air with 5% CO2. CHO-K1 cells were cultured in the same media without 2% chicken serum. For CCR2-transfected CHO-K1 cells, the medium was supplemented with 500 μg/ml G418 was added (Sigma-Aldrich). Murine immature dendritic cell line JAWSII (ATCC CRL-11904™) was cultured in Alpha minimum essential medium containing 4 mM L-glutamine, 1 mM sodium pyruvate, 5 ng/ml murine Granulocyte macrophage colony-stimulating factor (GM-CSF), 20% FBS, 100 U/ml penicillin and 100 μg/ml streptomycin at 37 °C in humidified air with 5% CO2. The cell cytotoxicity was determined using the MTT (3-(4, 5-dimethylthiazol-2-yl)-2, 5-diphenyltetrazolium bromide metabolic activity assay according to the manufacturer’s instruction (Thermo Fisher Scientific). Briefly, cells (5 × 10^3 cells/well) were seeded in 96-well tissue culture plates, incubated overnight and treated with AvBDs at concentrations of 4, 16, 64 and 256 μg/ml for 4, 12, 24 and 48 h at 37 °C. After treatment, 20 μl of 12 mM MTT solution was added to each well. The plate was incubated for 4 h and read at 540 nm. Viability was expressed as percentage of viable cells relative to the untreated control. The experiments were performed in triplicate.

Substance | MBC-ls P. aeruginosa (ATCC 27853) [1] [µg/mL] | MIC-ls P. aeruginosa (ATCC 27853) [1] [µg/mL] | chemotactic activity for JAWSII cells (in words) ([2]; n = 5) | MBC-ls S. aureus (ATCC 29213) (S. aureus (ATCC 29213)) [µg/mL] | MIC-ls S. aureus (ATCC 29213) (S. aureus (ATCC 29213)) [µg/mL] | MBC-ls E. coli (ATCC 25922) (E. coli (ATCC 25922)) [µg/mL] | MIC-ls E. coli (ATCC 25922) (E. coli (ATCC 25922)) [µg/mL] | MBC-ls S. Typhimurium (ATCC 14028) [3] [µg/mL] | MIC-ls S. Typhimurium (ATCC 14028) [3] [µg/mL] | percent of killing of E. coli [4] [%] | percent of killing of S. aureus [5] [%] | percent of killing of S. Typhimurium [6] [%] | percent of killing of P. aeruginosa [7] [%] | other results
GPDS[Abu]NHDRGL[Abu]RVGNCNPGEYLAKY[Abu]FEPVIL[Abu]CKPLSPTPTKT (disulfide 17-35) [AvBD-12A5] | >256 | 256 | lost their chemotactic activity | >256 | >256 | 256 | 64 | >256 | 256 |  |  |  |  | 
GPHSANHVRGLARVGNANPGLYLAKYAFIPVILAAKPLSPTPTKT [AvBD-12A1] | 256 | 32 |  | >256 | 256 | 32 | 8 | 128 | 32 | 88.6 | 77.2 | 95.6 | 72.3 | 
GPRSANHKRGLARVGNANPGKYLAKYSFRPVILSSKPLSPTPTKT [AvBD-12A3] | 16 | 8 |  | 256 | 128 | 16 | 4 | 64 | 16 | 100 | 91.7 | 93.9 | 100 | MIC P. aeruginosa (ATCC 27853) [1]: >256 µg/mL; metabolic activity (viability relative to untreated control), CHO-K1 (CHO-K1 cells): No significant difference was found; chemotactic index (C.I.) for JAWSII cells ([2]; peptide 64 μg/ml, migrated cells with peptide / with chemotactic buffer, n = 5): 3.74; chemotactic activity for JAWSII cells, % of wild type ([2]; peptide 64 μg/ml, relative to AvBD-12): 56.6 % of wild type; killing potency against E. coli retained at 150 mM NaCl [4]: approximately 80%; killing activity against S. aureus retained at 150 mM NaCl ([5]; 64 μg/ml): 30-60%; killing activity against S. Typhimurium retained at 150 mM NaCl ([6]; 32 μg/ml): 30-60%; killing potency against P. aeruginosa retained at 150 mM NaCl ([7]; 32 μg/ml): approximately 80%; MIC S. aureus (ATCC 29213) (S. aureus (ATCC 29213)): >256 µg/mL; MIC E. coli (ATCC 25922) (E. coli (ATCC 25922)): 128 µg/mL; MIC S. Typhimurium (ATCC 14028) [3]: >256 µg/mL
GPDS[Abu]NHDRGL[Abu]RVGN[Abu]NPGEYLAKY[Abu]FEPVIL[Abu][Abu]KPLSPTPTKT [AvBD-12A6] | >256 | 256 | lost their chemotactic activity | >256 | >256 | 256 | 64 | >256 | 256 |  |  |  |  | 
